# According to patent US20240383874A1, “BENZENE RING DERIVATIVE, AND COMPOSITION AND PHARMACEUTICAL USE THEREOF” (Xizang Haisco Pharmaceutical Co., Ltd., priority 2020, published 2024):
# Counter-ions that a name gives are not always drawn. Like-named read-outs stand apart in the source and are kept apart here.
# Legend:
# [1] = tested on: full-length AR (AR-FL); experiment: Degradation experiment on full-length AR (AR-FL) in 22RV1 cells; assay type: cell-based; conditions: 24 h; for AR-FL Dmax % (maximum degradation rate): relative to vehicle control
# Method: (§1) Prostate cancer cells 22RV1 were purchased from ATCC, the cell medium was 1640+10% FBS, and the cells were cultured in an incubator at 37° C. under 5% CO2. On day 1, the cells in an exponential phase were collected. With a 1% css-FBS phenol red-free medium, the cell suspension was adjusted to a corresponding concentration and plated into a 6-well plate at 1 mL/well and 100000 cells/well. The next day, a 1% css-FBS phenol-free medium containing the compound to be tested was added, a 1% css-FBS phenol-free medium containing 0.2% DMSO was added to one well as DMSO vehicle control, and the 6-well plate was cultured in an incubator at 37° C. under 5% CO2. After 24 h, the cells were digested with pancreatin and collected into a 1.5 mL centrifuge tube. 15 μL of RIPA lysate (containing 1×protease inhibitor cocktail) was added to each well, and the cells were lysed on ice for 15 min and then centrifuged at 12000 g and 4° C. for 10 min. The supernatant protein samples were collected, and protein quantification was performed by a BCA method. AR-FL and AR-Vs were detected using fully automatic protein expression quantitative analysis, which involved diluting the protein to be tested to 1 mg/mL. 4 μL of the diluted protein samples were added to 1 μL of 5×Master Mix (provided in the kit), and the prepared samples were denatured at 95° C. for 5 min and placed on ice for use. The primary antibodies, AR (CST, 5153S) and β-actin (CST, 3700), were diluted with Antibody Diluent II (provided in the kit) at a dilution ratio of 1:20 and 1:200, respectively. The secondary antibody was a mixed goat anti-mouse and goat anti-rabbit secondary antibody in a ratio of 1:1, and the color development solution was a mixed solution of Lumino-S and Peroxide in a ratio of 1:1. The prepared reagents were successively added to an assay plate according to instructions of the kit and detected on an instrument. Western blot band processing was performed using “Compass for SW”, a fully automatic protein expression quantitative analysis software, in which western blot bands were automatically simulated based on signal values. The degradation rate of AR-FL (3) or AR-Vs (4) relative to vehicle control at different compound concentrations was calculated according to formulas (3) and (4), wherein AR-FLcompound was the relative peak area of AR-FL in the treated group, and AR-FLsolvent was the relative peak area of AR-FL in the vehicle control group; AR-Vscompound was the relative peak area of AR-Vs in the treated group, and AR-Vssolvent was the relative peak area of AR-Vs in the vehicle control group.
# (§2) DC50 calculation: the compound concentration DC50 values at which the degradation rate of AR-FL or AR-Vs was 50% were calculated using OriginPro2015 software and analyzed using DoseResp function according to formula (3) or (4).
# [2] = tested on: AR splice variants (AR-Vs); experiment: Degradation experiment on AR splice variants (AR-Vs) in 22RV1 cells; assay type: cell-based; conditions: 24 h; for AR-Vs Dmax % (maximum degradation rate): relative to vehicle control
# Method: as §1, §2
# [3] = tested on: 22RV1 cells; experiment: Experiment 2 on inhibiting 22RV1 cell proliferation (7 days, CellTiter-Glo); assay type: cell-based; conditions: 1% css-FBS phenol red-free medium, incubated with compound 7 days, read-out: IC50 values on proliferation inhibition of 22RV1 cells
# Summary of the method: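 22RV1 cells plated at 2000/well in phenol red-free medium with 1% css-FBS and treated next day with compound for 7 days at 37 °C. Viability read by CellTiter-Glo luminescence relative to DMSO vehicle; IC50 from dose-response fit.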
# [4] = Pharmacokinetic test in rats; assay type: in vivo; conditions: rat, po; male SD rats, single dose i.g. 5 mg/kg, plasma, 0-24 h
# Method: Test objective: in this test, a single dose of test compounds was administered to SD rats intragastrically, and the concentrations of the test compounds in plasma of the rats were measured to evaluate pharmacokinetic characteristics of the test compounds in the rats.
# Test animals: male SD rats, 200-250 g, 6-8 weeks old, 3 rats/compound, purchased from Chengdu Dossy Experimental Animals Co., Ltd.
# Test method: on the day of the test, 3 SD rats were randomly grouped according to their body weights. The animals were fasted with water available for 12 to 14 hours one day before the administration of a test compound, and were fed 4 hours after the administration.
# Sampling: before and after the administration, 0.1 mL of blood was taken from the orbits of the rats under isoflurane anesthesia, and placed in an EDTAK2 centrifuge tube. Centrifugation was carried out at 5000 rpm at 4C for […], and the plasma was collected.
# Time points for plasma collection in G1 group: 0, 5 min, 15 min, 30 min, 1 h, 2 h, 4 h, 6 h, 8 h, and 24 h.
# Before analysis and detection, all samples were stored at −80° C. The samples were analyzed quantitatively by LC-MS/MS.
# [5] = degradation rate 50% relative to vehicle control
IC50 [3] [nM],AUC(0-t) [4] [ng·h/mL],"IC50 ([3]; Homo sapiens, 22Rv1, 168 h) [nM]","DC50 [1, 5] [nM]","DC50 [2, 5] [nM]",Structure (SMILES),AR-FL Dmax % (maximum degradation rate) [1] [%],AR-Vs Dmax % (maximum degradation rate) [2] [%]
–,–,–,–,–,"CC(C)(c1ccc(OCc2ccnc(N3CCN(C4CCN(C5CN(c6ccc7c(c6)C(=O)N(C6CCC(=O)NC6=O)C7=O)C5)CC4)CC3)n2)cc1)c1cc(Cl)c(OCCCl)c(C#N)c1 (centres unmarked) [Compound 5 trifluoroacetate, 3-chloro-2-(2-chloroethoxy)-5-(2-(4-((2-(4-(1-(1-(2-(2,6-dioxopiperidin-3-yl)-1,3-dioxoisoindolin-5-yl)azetidin-3-yl)piperidin-4-yl)piperazin-1-yl)pyrimidin-4-yl)methoxy)phenyl)propan-2-yl)benzonitrile (Compound 5) trifluoroacetate]",52.5,–
–,–,–,–,–,"Cn1c(=O)n(C2CCC(=O)NC2=O)c2cccc(CN3CC(N4CCC(N5CCN(c6nccc(COc7ccc(C(C)(C)c8cc(Cl)c(OCCCl)c(C#N)c8)cc7)n6)CC5)CC4)C3)c21 (centres unmarked) [Compound 6 trifluoroacetate, 3-chloro-2-(2-chloroethoxy)-5-(2-(4-((2-(4-(1-(1-((1-(2,6-dioxopiperidin-3-yl)-3-methyl-2-oxo-2,3-dihydro-1H-benzol[d]imidazol-4-yl)methyl)azetidin-3-yl)piperidin-4-yl)piperazin-1-yl)pyrimidin-4-yl)methoxy)phenyl)propan-2-yl)benzonitrile (Compound 6) trifluoroacetate]",57.6,–
–,–,–,–,–,"Cn1c(=O)n(C2CCC(=O)NC2=O)c2cccc(CN3CC(N4CCC(N5CCN(c6nccc(COc7ccc(C(C)(C)c8cc(Cl)cc(C#N)c8)cc7)n6)CC5)CC4)C3)c21 (centres unmarked) [Compound 9 trifluoroacetate, 3-chloro-5-(2-(4-((2-(4-(1-(1-((1-(2,6-dioxopiperidin-3-yl)-3-methyl-2-oxo-2,3-dihydro-1H-benzo[d]imidazol-4-yl)methyl)azetidin-3-yl)piperidin-4-yl)piperazin-1-yl)pyrimidin-4-yl)methoxy)phenyl)propan-2-yl)benzonitrile (Compound 9) trifluoroacetate]",68.3,76.8
562,–,–,–,–,"CC(C)(c1ccc(OCc2ccnc(N3CCN(C4CCN(C5CN(c6ccc7c(c6)C(=O)N(C6CCC(=O)NC6=O)C7=O)C5)CC4)CC3)n2)cc1)c1cc(Cl)cc(C#N)c1 (centres unmarked) [Compound 10, 3-chloro-5-(2-(4-((2-(4-(1-(1-(2-(2,6-dioxopiperidin-3-yl)-1,3-dioxoisoindolin-5-yl)azetidin-3-yl)piperidin-4-yl)piperazin-1-yl)pyrimidin-4-yl)methoxy)phenyl)propan-2-yl)benzonitrile]",–,64
452,–,–,–,–,"CCOc1c(Cl)cc(C(C)(C)c2ccc(OCc3ccnc(N4CCN(C5CCN(C6CN(Cc7cccc8c7n(C)c(=O)n8C7CCC(=O)NC7=O)C6)CC5)CC4)n3)cc2)cc1C#N (centres unmarked) [Compound 18, 3-chloro-5-(2-(4-((2-(4-(1-(1-((1-(2,6-dioxopiperidin-3-yl)-3-methyl-2-oxo-2,3-dihydro-1H-benzo[d]imidazol-4-yl)methyl)azetidin-3-yl)piperidin-4-yl)piperazin-1-yl)pyrimidin-4-yl)methoxy)phenyl)propan-2-yl)-2-ethoxybenzonitrile]",53,91
–,740 ± 362,899,–,–,"Cn1c(=O)n(C2CCC(=O)NC2=O)c2ccc(N3CCC(C4CCN(CC5CCN(c6nccc(COc7ccc(C(C)(C)c8cc(Cl)cc(C#N)c8)cc7)n6)CC5)CC4)CC3)cc21 (centres unmarked) [Compound 88 trifluoroacetate, 3-chloro-5-(2-(4-((2-(4-((1′-(1-(2,6-dioxopiperidin-3-yl)-3-methyl-2-oxo-2,3-dihydro-1H-benzo[d]imidazol-5-yl)-[4,4′-bipiperidin]-1-yl)methyl)piperidin-1-yl)pyrimidin-4-yl)methoxy)phenyl)propan-2-yl)benzonitrile]",64,73
–,1700 ± 335,678,–,–,"CCOc1c(Cl)cc(C(C)(C)c2ccc(OCc3ccnc(N4CCC(CN5CCC(C6CCN(c7ccc8c(c7)n(C)c(=O)n8C7CCC(=O)NC7=O)CC6)CC5)CC4)n3)cc2)cc1C#N (centres unmarked) [Compound 94 trifluoroacetate, 3-chloro-5-(2-(4-((2-(4-((1′-(1-(2,6-dioxopiperidin-3-yl)-3-methyl-2-oxo-2,3-dihydro-1H-benzo[d]imidazol-5-yl)-[4,4′-bipiperidin]-1-yl)methyl)piperidin-1-yl)pyrimidin-4-yl)methoxy)phenyl)propan-2-yl)-2-ethoxybenzonitrile]",84,83
–,658 ± 133,421,1180,1070,"COc1c(Cl)cc(C(C)(C)c2ccc(OCc3ccnc(N4CCC(CN5CCC(C6CCN(c7ccc8c(c7)n(C)c(=O)n8C7CCC(=O)NC7=O)CC6)CC5)CC4)n3)cc2)cc1C#N (centres unmarked) [Compound 97 trifluoroacetate, 3-chloro-5-(2-(4-((2-(4-((1′-(1-(2,6-dioxopiperidin-3-yl)-3-methyl-2-oxo-2,3-dihydro-1H-benzo[d]imidazol-5-yl)-[4,4′-bipiperidin]-1-yl)methyl)piperidin-1-yl)pyrimidin-4-yl)methoxy)phenyl)propan-2-yl)-2-methoxybenzonitrile (Compound 97) trifluoroacetate]",–,–
–,563 ± 350,446,–,–,"CC(C)(c1ccc(OCc2ccnc(N3CCC(CN4CCC(C5CCN(c6ccc(C(=O)NC7CCC(=O)NC7=O)nc6)CC5)CC4)CC3)n2)cc1)c1cc(Cl)cc(C#N)c1 (centres unmarked) [Compound 110 trifluoroacetate, 5-(1′-((1-(4-((4-(2-(3-chloro-5-cyanophenyl)propan-2-yl)phenoxy)methyl)pyrimidin-2-yl)piperidin-4-yl)methyl)-[4,4′-bipiperidin]-1-yl)-N-(2,6-dioxopiperidin-3-yl)picolinamide]",–,56
–,–,821,–,–,"COc1c(Cl)cc(C(C)(C)c2ccc(OCc3ccnc(N4CCC(CN5CCC(N6CCC(c7ccc8c(c7)n(C)c(=O)n8C7CCC(=O)NC7=O)CC6)CC5)CC4)n3)cc2)cc1C#N (centres unmarked) [Compound 116 trifluoroacetate, 3-chloro-5-(2-(4-((2-(4-((4-(1-(2,6-dioxopiperidin-3-yl)-3-methyl-2-oxo-2,3-dihydro-1H-benzo[d]imidazol-5-yl)-[1,4′-bipiperidin]-1′-yl)methyl)piperidin-1-yl)pyrimidin-4-yl)methoxy)phenyl)propan-2-yl)-2-methoxybenzonitrile]",77,67
–,–,–,–,–,"Cn1c(=O)n(C2CCC(=O)NC2=O)c2cccc(CN3CCC(CN4CCC(C5CCN(c6nccc(COc7ccc(C(C)(C)c8cc(Cl)c(OCCCl)c(C#N)c8)cc7)n6)CC5)CC4)CC3)c21 (centres unmarked) [Compound 126 trifluoroacetate, 3-chloro-2-(2-chloroethoxy)-5-(2-(4-((2-(1′-((1-((1-(2,6-dioxopiperidin-3-yl)-3-methyl-2-oxo-2,3-dihydro-1H-benzo[d]imidazol-4-yl)methyl)piperidin-4-yl)methyl)-[4,4′-bipiperidin]-1-yl)pyrimidin-4-yl)methoxy)phenyl)propan-2-yl)benzonitrile]",98,95
